Values quoted from earlier work as cited in patent US11472782B2, “RIP1 inhibitory compounds and methods for making and using the same” (priority 2018, dated 2022).

Test system: TNF-alpha induced hypothermia
Conditions: mouse, dose of 30 mg/kg, according to WO 2014/125444

In the case of `CN1C(=O)[C@@H](NC(=O)c2nnc(Cc3ccccc3)[nH]2)COc2ccccc21` [comparative compound, (S)-5-benzyl-N-(5-methyl-4-oxo-2,3,4,5-tetrahydrobenzo[b][1,4]oxazepin-3-yl)-4H-1,2,4-triazole-3-carboxamide], the “inhibition of TNF-alpha induced hypothermia” value is listed as 93%.
